Counter-ions that a name gives are not always drawn. Like-named read-outs stand apart in the source and are kept apart here.
Columns and labels:
[1] = tested on: HIVBRU; assay: Formation of giant cells from HIV-infected Molt-4 cells (mixed cultivation, microscopic observation); type: cell-based; conditions: mixed cultivation of HIV-infected and HIV-non-infected Molt-4 cells; 20 hours of the cultivation; read-out: concentration of SBA that can inhibit the formation of the giant cells
Description: In the tests above, the replication of the viral particles of HIV was examined in terms of the amount of the p24 antigen protein produced and appearing in the culture supernatant from the cultivated cells. Thus, the amount of the p24 antigen produced was measured periodically over 6 days after the A3.01 cells were infested with HIV. It was then observed that in the absence of SBA, the replication of the viral particles of HIV was induced in the A3.01 cells by stimulation with 10 units/ml of TNF-α added. […] Thus, the effective amount of SBA has the activity to inhibit the replication of the viral particles of HIV within the cells to an extent as same as AZT, and from this it is expected that SBA is useful similarly to AZT for the therapeutic treatments of AIDS. (d) Tests for evaluating an inhibitory activity of SBA to the formation of giant cells from HIV-infected Molt-4 cells In a similar manner to that in the above Test (c), Molt-4 cells (a CD4-positive human T-cell strain) were infected with AIDS virus, HIVBRU. Thereafter, The HIV-infected Molt-4 cells were mixed with such Molt-4 cells which had no HIV-infection. And the mixture of these cells were cultivated at a high density of the mixed cells in the above-mentioned improved RPM1-1640 medium containing SBA at its different concentrations. […]

[2] = Cytotoxicity of SBA, trypan blue dye-exclusion, U1 cells; type: cell-based; conditions: human, read-out: Rate of survival of the cells (%)
Description: It is known that stimulation of HIV gene by TPA and tumor necrosis factor (TNF) can activate the HIV gene which is latent as the HIV-provirus within the T-cells as infected with HIV and said stimulation can thus strongly induce the progresses of sprouting and release of the viral particles of HIV. It is considered that said activation of the HIV gene for the occurrence or developement of HIV virus would be caused by such an oxidation stress which is brought about within the host cells by any stimulation given from outside the host cells as above-mentioned. Further, such discoveries and observations have been reported that NFkB, which is a nuclear factor wthin the cells, can play important part in the proliferation of HIV virus, and that the oxidation-reduction status of the NFkB is important for the activation of this factor NFkB, and so on. […] (a) Test of examining cytotoxicity of SBA against various kinds of T-cells A3.01 cells (HAT-susceptible CEM cell strain), A3.01 cells as infected with HIV, and the above-mentioned U1 cells were cultivated, respectively, in an improved RPM1-1640 media containing SBA added at different concentrations. After the cultivation, the number of the cells under test which still survived was determined under a polarizing microscope by a trypan blue dye-exclusion method.

Question: Which results are given for O=C1O[C@H]([C@@H]2COC(c3ccccc3)O2)C(O)=C1O (stereo partly drawn) [SBA, 5,6-O-benzylidene-L-ascorbic acid mono-sodium salt]?
Answer: minimal effective concentration [1]: ≥ 10 µg/mL; viability ([2]; SBA 100 µg/ml): 90%; viability ([2]; SBA 500 µg/ml): 100%; viability ([2]; SBA 800 µg/ml): 83%; viability ([2]; SBA 1000 µg/ml): 92%
